# Tests used:
# [1] = system: three nematode species, zebrafish and HEK cells; assay: Grouping by phylogenetic bioactivity profile (multi-organism screening pipeline); set-up: key: Group 1 molecules are lethal to only one or two of the three nematode species tested, but are non-lethal to zebrafish and HEK cells.; Group 2 molecules are lethal to all three nematode species, but are non-lethal to zebrafish and human cells.; Group 3 molecule are lethal to fish or HEK cells, regardless of their nematode bioactivity profile; conditions: nematode selectivity and cross-species lethality group
# Source text: To further characterize our 275 C. elegans-lethal molecules, we organized them into three separate groups based on their phylogenetic bioactivity profiles (Fig. 2a). Group 1 contains 102 molecules that are lethal to only one or two of the three nematode species tested, but are non-lethal to zebrafish and HEK cells. Group 2 contains 67 compounds that are lethal to all three nematode species, but are non-lethal to zebrafish and human cells. Group 3 contains the remaining 106 compounds that are lethal to fish or HEK cells, and have varied bioactivity in different nematode species. In particular, the 67 molecules in group 2 represent potentially ideal anthelmintic leads; they have activity across multiple nematode species, and appear not to affect vertebrates.
# HEK293T cells = assay: HEK293 cell proliferation (BrdU) chemical screening; assay type: cell-based; conditions: 60 μM, BrdU normalized signal <0.16
# Experimental: HEK293T cells (Attisano Lab, University of Toronto) were maintained in Dulbecco's Modified Eagle's Medium (Gibco) supplemented with 10% FBS (DMEM-10% FBS). Cells at a concentration of 50 cells μl^−1 were seeded into 96-well plates at a final volume of 100 μl (∼5,000 cells per well). Chemicals from the wactive library were added to the wells for a final concentration of 60 μM (0.6% DMSO v/v). The wactive library plates were screened at least in triplicate. Cell proliferation was determined using a bromodeoxyuridine (BrdU) assay kit (Exalpha Biologicals Inc.). The BrdU was added 2 days after chemical addition. Fixation and denaturation was performed ∼16–18 h later. Anti-BrdU antibody was added, and incorporated BrdU was detected using a horseradish peroxidase-conjugated goat anti-mouse antibody. The BrdU incorporation signal was measured at 450/550 nm for the amount of conversion of tetra-methylbenzidine that is proportional to the amount of BrdU incorporated. For each replicate of each plate, the average signal for the DMSO control wells was calculated. For each well in the plate (including the DMSO control wells), the signal was normalized by dividing by the average DMSO signal. The mean and standard deviation for the population of 960 normalized sample signals of the 10-plate wactive library were calculated and found to be […] and 0.44, respectively.
# [2] = system: wact-11-family resistant C. elegans mutants (RP2674, RP2698 and others); assay: 96-well liquid-based dose-response (in vivo LD100), wact-11-family resistant mutants; conditions: liquid dose-response of resistant mutants versus N2
# Experimental: (§1) The 96-well liquid-based chemical screening assay was adapted from an established RNAi screening protocol. Briefly, saturated HB101 Escherichia coli culture was concentrated 2-fold using NGM (nematode growth media) containing 3 mg ml^−1 NaCl, 2.5 mg ml^−1 peptone, 5 μg ml^−1 cholesterol, 1 mM CaCl2, 1 mM MgSO4 and 25 mM KH2PO4. A total of 40 μl of NGM+HB101 was dispensed into each well of a 96-well plate, and chemicals were pinned into the wells using a pinning tool with a 300 nl slot volume (V&P Scientific). Approximately 20 synchronized first larval-stage (L1) worms, in 10 μl of M9 buffer (see ref. [24] for the recipe), were then added to each well. The synchronized L1s were obtained from an embryo preparation (see ref. [24] for the protocol) performed the previous day. The final concentration of dimethyl sulfoxide (DMSO) in the wells was 0.6% v/v. A dissection microscope was used to visualize the wells either 5 or 6 days post worm deposition and any obvious chemical-induced phenotypes were noted.
# The 96-well liquid-based assay was also used for all follow-up dose-response experiments in this work. These experiments were carried out in quadruplicate, and the total number of worms in each well was counted 6 days after worm deposition.
# H. contortus = H. contortus egg hatch chemical screen; assay type: in vivo, Haemonchus contortus; conditions: 90-100% lethal at 7.5 or 60 μM
# Experimental: (§2) Fresh cattle and sheep faeces containing eggs of an ivermectin-resistant strain of C. onchophora[39] and the MHco3(ISE) strain of H. contortus, respectively, were kindly supplied by Dr Doug Colwell and Dawn Gray (Lethbridge Research Station, Agriculture and Agri-Food Canada). Experimental infections used to generate this material were carried out using established methods, and were approved by the Lethbridge AAFC Animal Care committee and conducted under animal use license ACC1407. Cattle faeces containing C. onchophora eggs were stored anaerobically at 4 °C for a maximum of 3 weeks, whereas sheep faeces containing H. contortus eggs were stored at 20 °C for no more than 48 h before harvesting eggs for use. Eggs were isolated from faeces using a standard saturated salt flotation method[42] immediately before each egg hatch assay. Approximately 100 eggs suspended in 100 μl of water were added to each well of a 96-well plate, and the wactive library chemicals were screened at two different concentrations (7.5 and 60 μM, 0.6% DMSO v/v). Baseline egg hatch rates were determined in DMSO control wells ∼48 h after the initial set-up of the assay by the addition of iodine tincture to stop development. […] A dissection microscope was used for visualization purposes.
# D. rerio = assay: Zebrafish embryo chemical screening; assay type: in vivo, Danio rerio (zebrafish); conditions: embryos, 10 μM, death or toxicity at 24 and 48 h post fertilization
# Experimental: Wild-type (AB) zebrafish embryos were collected in E3 solution (5 mM NaCl, 0.17 mM KCl, 0.33 mM CaCl2, 0.33 mM MgSO4) immediately after fertilization and arrayed at three embryos per well in 96-well plates, 200 μl per well. Wild-type (AB) zebrafish were originally obtained from Zebrafish International Resource Center (University of Oregon). Chemicals were added to each well at 6 h post fertilization at a final concentration of 10 μM (0.5% v/v DMSO), with each plate containing nine wells of DMSO controls. Embryos were examined for mortality and observable developmental phenotypes at 24 and 48 h post fertilization using an Olympus SZX10 Brightfield microscope. Phenotypes examined were death, developmental delay, reduced pigmentation, cranial oedema or cardiac defects (slow/absent heart rate, abnormal heart size). Each compound was screened in duplicate, with only phenotypes appearing in both replicates associated with a given compound. Any compound producing multiple, distinct phenotypes across replicates (for example, cardiac defects in one replicate, mortality in another) was labelled ‘toxic'. A molecule was considered ‘lethal' to zebrafish if it induced ‘death' or ‘toxicity'.
# C. elegans = C. elegans liquid-based chemical screening of the wactive library; assay type: in vivo, Caenorhabditis elegans; set-up: key: 1 = yes
# Experimental: as §1
# For our preliminary screens, 50,596 out of 67,012 compounds were assayed in liquid at a 60 μM concentration, and the other 16,416 molecules were screened on solid media at 25 μM (see ref. [24] for a description of our solid-based screening method). […]
# C. onchophora = assay: C. oncophora egg hatch chemical screen; assay type: in vivo, Cooperia onchophora; set-up: key: 1 = yes; conditions: 90-100% lethal at 7.5 or 60 μM
# Experimental: as §2
structure (smiles),measurement,setting,value
Brc1ccc(-c2noc(-c3cccs3)n2)cc1 [wact-2],Group # (Bioactivity Group #),[1],1
same,HEK Cell Growth Decrease (1 = yes),HEK293T cells,0
same,Resistance of wact-11-family resistant mutants to compound-induced lethality (in words),[2],not
same,H. contortus Lethal (1 = yes),H. contortus,0
same,D. rerio Lethal (1 = yes),D. rerio,0
same,C. elegans Lethal (1 = yes),C. elegans; 100% lethality at 60 μM or less,1
same,Wactive (1 = yes),C. elegans; induces obvious phenotype in C. elegans at 60 μM or less,1
same,C. onchophora Lethal (1 = yes),C. onchophora,1

# — publication PMC4491176, “Caenorhabditis elegans is a useful model for anthelmintic discovery” (Nature Communications, 2015)
